Experimental data from patent US8318804B2 (priority 2007, dated 2012).
Converted amounts (≈) assume the structure as drawn.

Experiments:
A/WY/03/2003 = type: cell-based, influenza A virus in MDCK cells
influenza virus = type: cell-based, influenza virus in MDCK cells
[1] = system: A/WY/03/2003 (H3N2) influenza virus; type: cell-based, influenza A virus in MDCK cells
[2] = system: influenza virus strain A/Wyoming/03/2003 (H3N2); type: cell-based, influenza A virus in MDCK cells

CCOC(=O)C([C@H]1C=C[C@@H](O)C1)[N+](=O)[O-] (stereo partly drawn) [EHCN, ethyl-(2R/S, 1′R,4′S)-2-(4′-hydroxy-2′-cyclopenten-1′-yl)-2-nitroacetate]
EC50 against A/WY/03/2003 (A/WY/03/2003): 4.5 µg/mL (≈ 20.9 µM) | plaque formation / antiviral activity in plaque reduction assay (influenza virus): fewer and smaller plaques than the untreated wells | protection (cell viability assay) [1]: 75% | cytopathic effect (CPE) observed under the microscope [2]: did not present complete CPE
